In US20110195911A1, “SYNTHETIC ANALOGS OF THE JUXTAMEMBRANE DOMAIN OF IGF1R AND USES THEREOF” (THE UNITED STATES OF AMERICA,AS REPRESENTED BY THE …, priority 2008, published 2011):
Where a SMILES comes first, the peptide text is derived from it. [ ]: non-standard residue; d: D form. The star is where a group is joined. Palmitoyl = CCCCCCCCCCCCCCCC(=O)*

Tests used:
[1] = system: MCF-7 breast cancer cells; experiment: MTT cell toxicity assay in MCF-7 breast cancer cells; type: cell-based; settings: for GI50 / TGI: final 0.5% FBS, two days with compound; for TGI: concentration of total growth inhibition (cytostatic); for growth inhibition / potency in MCF-7 cells (in words): comparison with related peptides
Experimental: Cell Toxicity Assays: MCF-7 (breast cancer), T47D (breast cancer), Colo 205 (colon cancer), JM-1 (rat hepatoma), Sk Me1-2 (melanoma), PLC (human hepatoma), and HepG2 (human hepatoma) cells were obtained from American Type Cell Culture Collection. MCF-7 cells were grown in RPMI medium supplemented with 10% Fetal Bovine Serum. The rest of the cell lines were grown in DMEM medium supplemented with 10% Fetal Bovine Serum.
MTT 43-(4,5-Dimethylthiazol-2-yl)-2,5-diphenyltetrazolium) cell assay was performed using MCF-7 breast cancer cells. For the assay, cells were seeded into 96 well plates in medium containing 1% Fetal Bovine Serum and 100 μL of a cell suspension containing 5000 cells per well. Wells containing medium-only, and wells containing untreated cells, served as controls.
Seeded cells were allowed to attach and grow in the wells for 24 hours. A 5 mM stock solution of each peptide was made by dissolving approximately 1 mg of peptide in appropriate amount of DMSO. 2 mL dilutions were used to make 0.2 μM, 1.0 μM, 5.0 μM, and 10.0 μM concentration solutions of the compounds in serum-free medium. 100 μl, of the resulting 2× solutions were added to the corresponding wells to provide a final FBS concentration of 0.5% and 0.1 μM, 0.5 μM, 2.5 μM, and 5.0 μM dilutions of inhibitors. The cells were incubated with test compounds for two days. The control wells were given 100 μL of medium to ensure maximum similarity to the test wells so that all of the wells had 200 μL of medium during the growth period. An individual plate was made for Time Zero, to which the dye was added at the time of addition of compounds.
An alternative potency assay was used to test compounds in MCF-7 (breast cancer), T47D (breast cancer), Colo 205 (colon cancer), JM-1 (rat hepatoma), Sk MeI-2 (melanoma), PLC (human hepatoma), and HepG2 (human hepatoma) cells. Cells were suspended at a concentration of approximately 5000 cells per 100 μL of suspension in a 5% FBS RPMI medium. The cells were seeded into 96-count wells and incubated over night. After one day's incubation, the 5% FBS medium was aspirated and replaced with 100 μL of no serum RPMI medium containing 1 mg Bovine Serum Albumin (BSA) per 1 mL RPMI. Various concentrations of the test compounds were prepared by dilution in no-serum medium containing 1 mg BSA/mL. 75 μL of the test compound solutions were added to the wells, and the cells were allowed to incubate for 15-20 minutes, after which time 25 μL of human recombinant IGF-1 (Peprotech) solution was added to the wells to attain final concentrations of 10 ng IGF-1/mL medium. The control wells were given 175 μL of no-serum medium in addition to 25 μL of IGF-1 solution. An individual plate was made for time zero, in which the medium was also aspirated and replaced with 175 μL of no-serum medium and 25 μL of IGF-1. 15 μL of MTT dye was added and let incubate for 4 hours, after which time a stop stop solubilization solution was added. The stop solution lysed the cells and released the dye reduced by the remaining living cells. Absorbance of the wells at 544 nm was determined by a FLUOstar/POLARstar Galaxy (BMG Lab Technologies GmbH) microplate reader. The activity was calculated from the data using the formula: 100×[(T−T0)/(C−T0)] for T>T0 and 100×[(T−T0)/T0] for T<T0, wherein T0 corresponds to cell density at the time of drug addition, “T” is the optical density of the test well after a 48-h period of exposure to test drug, and “C” is the control optical density. The GI50 measures the growth inhibitory power of the test agent, and is defined as the concentration of test drug where 100×(T−T0)/(C−T0)=50. The TGI is the concentration of test drug where 100×(T−T0)/(C−T0)=0. Thus, the TGI signifies a cytostatic effect.

[2] = biological target: Insulin-like growth factor 1 receptor (IGF1R) (UniProt P08069 31-1367, limits assumed); experiment: cell-based or functional assay
Insulin-like growth factor 1 receptor (IGF1R), sequence (P08069 31-1367 limits assumed): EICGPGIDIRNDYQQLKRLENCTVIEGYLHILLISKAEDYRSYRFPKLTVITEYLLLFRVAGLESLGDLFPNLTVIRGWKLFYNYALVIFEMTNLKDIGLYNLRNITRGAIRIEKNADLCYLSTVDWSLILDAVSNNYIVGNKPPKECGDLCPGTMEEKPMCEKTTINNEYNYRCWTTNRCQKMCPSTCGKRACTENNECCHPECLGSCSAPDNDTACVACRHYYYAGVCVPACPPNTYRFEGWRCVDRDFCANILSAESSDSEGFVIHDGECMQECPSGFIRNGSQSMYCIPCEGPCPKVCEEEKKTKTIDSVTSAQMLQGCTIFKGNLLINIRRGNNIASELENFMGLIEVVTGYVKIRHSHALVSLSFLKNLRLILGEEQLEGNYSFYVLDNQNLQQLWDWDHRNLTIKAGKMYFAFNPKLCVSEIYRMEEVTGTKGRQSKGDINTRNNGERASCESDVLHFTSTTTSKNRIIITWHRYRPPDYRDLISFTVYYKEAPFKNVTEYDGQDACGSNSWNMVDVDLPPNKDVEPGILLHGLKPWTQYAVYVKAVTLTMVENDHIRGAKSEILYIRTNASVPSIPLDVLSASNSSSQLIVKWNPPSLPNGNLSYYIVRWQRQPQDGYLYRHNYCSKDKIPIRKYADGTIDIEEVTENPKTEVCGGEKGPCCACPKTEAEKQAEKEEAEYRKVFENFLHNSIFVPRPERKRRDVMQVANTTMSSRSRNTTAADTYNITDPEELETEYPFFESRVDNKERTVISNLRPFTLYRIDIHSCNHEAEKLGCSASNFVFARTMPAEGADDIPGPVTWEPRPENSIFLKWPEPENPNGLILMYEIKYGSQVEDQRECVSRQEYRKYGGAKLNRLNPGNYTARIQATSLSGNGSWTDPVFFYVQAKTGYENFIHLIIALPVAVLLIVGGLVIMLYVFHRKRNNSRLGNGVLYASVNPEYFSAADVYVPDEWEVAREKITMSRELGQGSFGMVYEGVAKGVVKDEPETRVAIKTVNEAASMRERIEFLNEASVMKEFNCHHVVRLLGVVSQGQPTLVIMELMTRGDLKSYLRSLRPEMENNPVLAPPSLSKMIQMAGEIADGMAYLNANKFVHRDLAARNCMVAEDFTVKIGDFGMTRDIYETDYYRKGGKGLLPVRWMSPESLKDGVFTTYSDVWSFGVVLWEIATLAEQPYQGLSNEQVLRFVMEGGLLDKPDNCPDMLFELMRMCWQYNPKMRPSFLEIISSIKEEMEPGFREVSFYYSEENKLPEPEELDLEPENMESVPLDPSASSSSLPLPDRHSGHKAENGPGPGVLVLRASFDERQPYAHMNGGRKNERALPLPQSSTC

## CCCCCCCCCCCCCCCC(=O)N[C@@H](CCCNC(=N)N)C(=O)N[C@@H](CCCCN)C(=O)N[C@@H](CCCNC(=N)N)C(=O)N[C@@H](CC(N)=O)C(=O)N[C@@H](CC(N)=O)C(=O)N[C@@H](CO)C(=O)N[C@@H](CCCNC(=N)N)C(=O)N[C@@H](CC(C)C)C(=O)NCC(=O)N[C@@H](CC(N)=O)C(=O)NCC(=O)N[C@H](C(=O)N[C@@H](CC(C)C)C(=O)N[C@@H](Cc1ccc(O)cc1)C(=O)N[C@@H](C)C(=O)N[C@@H](CO)C(=O)N[C@H](C(=O)N[C@@H](CC(N)=O)C(N)=O)C(C)C)C(C)C [Peptide 12, Pal-RKRNNSRLGNGVLYASVN-NH2] (Palmitoyl-RKRNNSRLGNGVLYASVN-NH2)
[1]; MCF-7 cells, MTT
  GI50: 1200 ± 100 nM
  TGI: 2700 ± 300 nM
  growth inhibition / potency in MCF-7 cells (in words): decreased activity slightly

## CCCCCCCCCCCCCCCC(=O)N[C@@H](C(=O)N[C@H](CO)C(=O)N[C@H](C)C(=O)N[C@H](Cc1ccc(O)cc1)C(=O)N[C@H](CC(C)C)C(=O)N[C@@H](C(=O)NCC(=O)N[C@H](CC(N)=O)C(=O)NCC(=O)N[C@H](CC(C)C)C(=O)N[C@H](CCCNC(=N)N)C(=O)N[C@H](CO)C(=O)N[C@H](CC(N)=O)C(=O)N[C@H](CC(N)=O)C(=O)N[C@H](CCCNC(=N)N)C(N)=O)C(C)C)C(C)C [Peptide 21, Pal-VSAYLVGNGLRSNNR-NH2] (Palmitoyl-[dV][dS][dA][dY][dL][dV]G[dN]G[dL][dR][dS][dN][dN][dR]-NH2)
[1]; MCF-7 cells, MTT
  TGI: 100 ± 5 nM
  growth inhibition / potency in MCF-7 cells (in words): did not improve or diminish the inhibitory activity

## CCCCCCCCCCCCCCCC(=O)N[C@H](Cc1ccc(O)cc1)C(=O)N[C@H](CC(C)C)C(=O)N[C@@H](C(=O)NCC(=O)N[C@H](CC(N)=O)C(=O)NCC(=O)N[C@H](CC(C)C)C(=O)N[C@H](CCCNC(=N)N)C(=O)N[C@H](CO)C(=O)N[C@H](CC(N)=O)C(=O)N[C@H](CC(N)=O)C(=O)N[C@H](CCCNC(=N)N)C(N)=O)C(C)C [Peptide 22, Pal-YLVGNGLRSNNR-NH2] (Palmitoyl-[dY][dL][dV]G[dN]G[dL][dR][dS][dN][dN][dR]-NH2)
[1]; MCF-7 cells, MTT
  cell killing activity (in words): enhanced cell killing activity
  TGI: 500 ± 25 nM
  growth inhibition / potency in MCF-7 cells (in words): equipotent to peptide 18

## CCCCCCCCCCCCCCCC(=O)N[C@@H](CCCCN)C(=O)N[C@@H](CCCNC(=N)N)C(=O)N[C@@H](CC(N)=O)C(=O)N[C@@H](CC(N)=O)C(=O)N[C@@H](CO)C(=O)N[C@@H](CCCNC(=N)N)C(=O)N[C@@H](CC(C)C)C(=O)NCC(=O)N[C@@H](CC(N)=O)C(=O)NCC(=O)N[C@H](C(=O)N[C@@H](CC(C)C)C(=O)N[C@@H](Cc1ccc(O)cc1)C(=O)N[C@@H](C)C(=O)N[C@@H](CO)C(=O)N[C@H](C(=O)N[C@@H](CC(N)=O)C(N)=O)C(C)C)C(C)C [Peptide 13, Pal-KRNNSRLGNGVLYASVN-NH2] (Palmitoyl-KRNNSRLGNGVLYASVN-NH2)
[1]; MCF-7, N-terminal truncation, relative to peptide 12/3
  improvement of potency: more than ten-fold
[1]; MCF-7, relative to peptide 3
  increase in toxicity: 12.5 fold
[1]; MCF-7 cells, MTT
  GI50: 80 ± 7 nM
  TGI: 500 ± 80 nM

## CCCCCCCCCCCCCCCC(=O)N[C@@H](CC(N)=O)C(=O)N[C@@H](CC(N)=O)C(=O)N[C@@H](CO)C(=O)N[C@@H](CCCNC(=N)N)C(=O)N[C@@H](CC(C)C)C(=O)NCC(=O)N[C@@H](CC(N)=O)C(=O)NCC(=O)N[C@H](C(=O)N[C@@H](CC(C)C)C(=O)N[C@@H](Cc1ccc(O)cc1)C(N)=O)C(C)C [Peptide 15, Pal-NNSRLGNGVLY-NH2] (Palmitoyl-NNSRLGNGVLY-NH2)
[1]; MCF-7 cells, MTT
  GI50: 100 ± 10 nM
  TGI: 1500 ± 50 nM
  growth inhibition / potency in MCF-7 cells (in words): gradual reduction in potency

## CCCCCCCCCCCCCCCC(=O)N[C@@H](Cc1c[nH]cn1)C(=O)N[C@@H](CCCNC(=N)N)C(=O)N[C@@H](CCCCN)C(=O)N[C@@H](CCCNC(=N)N)C(=O)N[C@@H](CC(N)=O)C(=O)N[C@@H](CC(N)=O)C(=O)N[C@@H](CO)C(=O)N[C@@H](CCCNC(=N)N)C(=O)N[C@@H](CC(C)C)C(=O)NCC(=O)N[C@@H](CC(N)=O)C(=O)NCC(=O)N[C@H](C(=O)N[C@@H](CC(C)C)C(=O)N[C@@H](Cc1ccc(O)cc1)C(=O)N[C@@H](C)C(=O)N[C@@H](CO)C(=O)N[C@H](C(=O)N[C@@H](CC(N)=O)C(=O)N1CCC[C@H]1C(N)=O)C(C)C)C(C)C [Peptide 23] (Palmitoyl-HRKRNNSRLGNGVLYASVNP-NH2)
[1]; MCF-7 cells, MTT
  GI50: 100 ± 50 nM
  TGI: >5000 nM
  growth inhibition / potency in MCF-7 cells (in words): increased the potency

B1: peptide 5 (Pal-HRKRNNSRLGNGVLYASV-NH2) (peptide)
peptide: Palmitoyl-HRKRNNSRLGNGVLYASV-NH2
SMILES: CCCCCCCCCCCCCCCC(=O)N[C@@H](Cc1c[nH]cn1)C(=O)N[C@@H](CCCNC(=N)N)C(=O)N[C@@H](CCCCN)C(=O)N[C@@H](CCCNC(=N)N)C(=O)N[C@@H](CC(N)=O)C(=O)N[C@@H](CC(N)=O)C(=O)N[C@@H](CO)C(=O)N[C@@H](CCCNC(=N)N)C(=O)N[C@@H](CC(C)C)C(=O)NCC(=O)N[C@@H](CC(N)=O)C(=O)NCC(=O)N[C@H](C(=O)N[C@@H](CC(C)C)C(=O)N[C@@H](Cc1ccc(O)cc1)C(=O)N[C@@H](C)C(=O)N[C@@H](CO)C(=O)N[C@H](C(N)=O)C(C)C)C(C)C
[2]
  GI50 (µM), MTT assay, MCF-7 cells: 0.45 µM
  TGI (µM), MTT assay, MCF-7 cells: 1.45 µM

B2: peptide 6 (Pal-VHRKRNNSRLGNGVLYASV-NH2) (peptide)
peptide: Palmitoyl-VHRKRNNSRLGNGVLYASV-NH2
SMILES: CCCCCCCCCCCCCCCC(=O)N[C@H](C(=O)N[C@@H](Cc1c[nH]cn1)C(=O)N[C@@H](CCCNC(=N)N)C(=O)N[C@@H](CCCCN)C(=O)N[C@@H](CCCNC(=N)N)C(=O)N[C@@H](CC(N)=O)C(=O)N[C@@H](CC(N)=O)C(=O)N[C@@H](CO)C(=O)N[C@@H](CCCNC(=N)N)C(=O)N[C@@H](CC(C)C)C(=O)NCC(=O)N[C@@H](CC(N)=O)C(=O)NCC(=O)N[C@H](C(=O)N[C@@H](CC(C)C)C(=O)N[C@@H](Cc1ccc(O)cc1)C(=O)N[C@@H](C)C(=O)N[C@@H](CO)C(=O)N[C@H](C(N)=O)C(C)C)C(C)C)C(C)C
[2]
  GI50 (µM), MTT assay, MCF-7 cells: 0.25 µM
  TGI (µM), MTT assay, MCF-7 cells: 1.05 µM

B3: peptide 23 (Pal-HRKRNNSRLGNGVLYASVNP-NH2) (peptide)
peptide: Palmitoyl-HRKRNNSRLGNGVLYASVNP-NH2
SMILES: CCCCCCCCCCCCCCCC(=O)N[C@@H](Cc1c[nH]cn1)C(=O)N[C@@H](CCCNC(=N)N)C(=O)N[C@@H](CCCCN)C(=O)N[C@@H](CCCNC(=N)N)C(=O)N[C@@H](CC(N)=O)C(=O)N[C@@H](CC(N)=O)C(=O)N[C@@H](CO)C(=O)N[C@@H](CCCNC(=N)N)C(=O)N[C@@H](CC(C)C)C(=O)NCC(=O)N[C@@H](CC(N)=O)C(=O)NCC(=O)N[C@H](C(=O)N[C@@H](CC(C)C)C(=O)N[C@@H](Cc1ccc(O)cc1)C(=O)N[C@@H](C)C(=O)N[C@@H](CO)C(=O)N[C@H](C(=O)N[C@@H](CC(N)=O)C(=O)N1CCC[C@H]1C(N)=O)C(C)C)C(C)C
[2]
  GI50 (µM), MTT assay, MCF-7 cells: 0.1 µM
  TGI (µM), MTT assay, MCF-7 cells: > 5 µM

B4: peptide 1 (Pal-HRKRNNSRLGNG-NH2) (peptide)
peptide: Palmitoyl-HRKRNNSRLGNG-NH2
SMILES: CCCCCCCCCCCCCCCC(=O)N[C@@H](Cc1c[nH]cn1)C(=O)N[C@@H](CCCNC(=N)N)C(=O)N[C@@H](CCCCN)C(=O)N[C@@H](CCCNC(=N)N)C(=O)N[C@@H](CC(N)=O)C(=O)N[C@@H](CC(N)=O)C(=O)N[C@@H](CO)C(=O)N[C@@H](CCCNC(=N)N)C(=O)N[C@@H](CC(C)C)C(=O)NCC(=O)N[C@@H](CC(N)=O)C(=O)NCC(N)=O
[2]
  GI50 (µM), MTT assay, MCF-7 cells: 1.8 µM
  TGI (µM), MTT assay, MCF-7 cells: > 5 µM
